Assay results from ChEMBL document CHEMBL1134110, “Anticonvulsant effects of new morphinan derivatives” (2001).

Legend:
Assay type in all cases: functional
[1] = tested on: Rattus norvegicus; test: The compound was tested for anticonvulsive activity expressed as seizure score after 4 hr of injection of kainic acid (10 mg/kg) and the drug at the dose of 40 mg/Kg in 15 rats
[2] = tested on: Rattus norvegicus; test: Effect was expressed as mortality after injection of kainic acid (10 mg/kg) and the drug at the dose of 20 mg/Kg after 48 hr out of 19 animals
[3] = tested on: Rattus norvegicus; test: The compound was tested for anticonvulsive activity expressed as seizure score after 4 hr of injection of kainic acid (10 mg/kg) and the drug at the dose of 20 mg/Kg in 15 rats
[4] = tested on: Rattus norvegicus; test: The compound was examined for circling behavior (marginal activity) using automated videotracking system 30 min after intraperitoneal injection at the dose of 20 mg/Kg in 12 rats
[5] = tested on: Rattus norvegicus; test: Effect was expressed as mortality after injection of kainic acid (10 mg/kg) and the drug at the dose of 40 mg/Kg after 48 hr
[6] = tested on: Rattus norvegicus; test: The compound was examined for circling behavior (marginal activity) using automated videotracking system 30 min after intraperitoneal injection at the dose of 40 mg/Kg in 12 rats
[7] = tested on: Rattus norvegicus; test: The compound was tested for anticonvulsive activity expressed as seizure score after 4 hr of injection of kainic acid (10 mg/kg) in 15 rats
[8] = tested on: Rattus norvegicus; test: The compound was examined for circling behavior (marginal activity) using automated videotracking system 30 min after intraperitoneal injection at the dose of 5 mg/Kg in 12 rats

Row | SMILES | Seizure score [1] | Mortality [2] | Seizure score [3] | Absolute turn angular/3 min [4] | Mortality [5] | Absolute turn angular/3 min [6] | Seizure score [7] | Absolute turn angular/3 min [8]
1 | COc1ccc2c(c1)C13CCCCC1C(C2)NCC3 (configuration not stated) | 2 | 4 | 2.4 | 186 | 4 | 258 | – | –
2 | Oc1ccc2c(c1)C13CCCCC1C(C2)NCC3 (configuration not stated) | 2.1 | 5 | 2.5 | 194 | 4 | 262 | – | –
3 | C=CCOc1ccc2c(c1)C13CCCCC1C(C2)NCC3 (configuration not stated) | 1 | 11 | 1.5 | 152 | 1 | 184 | – | –
4 | C=CCN1CCC23CCCCC2C1Cc1ccc(OC)cc13 (configuration not stated) | 2.2 | 6 | 2.9 | 224 | 6 | 282 | – | –
5 | C=CCOc1ccc2c(c1)C13CCCCC1C(C2)N(CC1CC1)CC3 (configuration not stated) | 2 | 4 | 2.8 | 172 | 4 | 250 | – | –
6 | C=CCOc1ccc2c(c1)C13CCCCC1C(C2)N(C)CC3 (configuration not stated) | 1.5 | 3 | 1.9 | 168 | 3 | 219 | – | –
7 | CN1CCC23CCCCC2C1Cc1ccc(OCC2CC2)cc13 (configuration not stated) | 1.3 | 3 | 1.8 | 160 | 2 | 202 | – | –
8 | C=CCN1CCC23CCCCC2C1Cc1ccc(OCC2CC2)cc13 (configuration not stated) | 2.2 | 5 | 2.7 | 175 | 4 | 242 | – | –
9 | C=C(C)[C@H]1CN[C@H](C(=O)O)[C@H]1CC(=O)O [KAINIC ACID] | – | – | – | – | – | – | 4.2 | –
10 | CN1CC[C@]23CCCC[C@H]2[C@H]1Cc1ccc(O)cc13 [LEVORPHANOL] | 1.8 | 5 | 2.8 | 310 | 4 | 384 | – | –
11 | c1ccc(C2(N3CCCCC3)CCCCC2)cc1 [PHENCYCLIDINE] | – | – | – | – | – | – | – | 420
12 | COc1ccc2c(c1)C13CCCCC1C(C2)N(C)CC3 (stereo not drawn) [RACEMETHORPHAN] | 1.4 | 4 | 2.2 | 192 | 2 | 265 | – | –
